The text below walks through data of patent publication US20120115845A1, “THERAPEUTIC AGENTS” (priority 2007, published 2012).

The target of test [1] is T1, human GHS receptor (Homo sapiens, UniProt Q92847). Put plainly: Ghrelin IP1 agonist assay (IP1 HTRF). The format is cell-based. Details: expressed in transfected cells; host or cells: HEK293s. As to conditions: for Emax: 2 h, agonist effect as % maximal effect of GHRP-6 (5 μM), read-out: h IP1 ag %; for EC50: HEK293s cells stably expressing human GHS receptor, 2 hours at 37° C., read-out: h IP1 ag EC50. On the procedure:
In HEK293s cells stably expressing human GHS receptor (In-house), agonist activity was assessed by measuring intracellular myo-Inositol 1 phosphate (IP1) using the IP1 HTRF assay kit (Cisbio International).
Cells were harvested using accutase (Sigma), spun down at 1000 rpm for 5 minutes and resuspended in stimulation buffer (as above) containing 0.02% fatty acid free BSA at a density of 1.43E6cells/ml.
Agonist effect of the compound was expressed as % maximal effect of GHRP-6 (5 μM: Bachem). Sigmoidal curves were fitted by Origin 7.5 Client and EC50 values determined.
Background: TR-FRET usually uses a lanthanide donor and a delayed reading to cut background.

Test [2] concerns the target T1, human GHS receptor. The experiment in a line: h bind IC50 (binding assay, Table 1). As to conditions: human receptor; Table 1.

T1 sequence (Q92847 whole entry): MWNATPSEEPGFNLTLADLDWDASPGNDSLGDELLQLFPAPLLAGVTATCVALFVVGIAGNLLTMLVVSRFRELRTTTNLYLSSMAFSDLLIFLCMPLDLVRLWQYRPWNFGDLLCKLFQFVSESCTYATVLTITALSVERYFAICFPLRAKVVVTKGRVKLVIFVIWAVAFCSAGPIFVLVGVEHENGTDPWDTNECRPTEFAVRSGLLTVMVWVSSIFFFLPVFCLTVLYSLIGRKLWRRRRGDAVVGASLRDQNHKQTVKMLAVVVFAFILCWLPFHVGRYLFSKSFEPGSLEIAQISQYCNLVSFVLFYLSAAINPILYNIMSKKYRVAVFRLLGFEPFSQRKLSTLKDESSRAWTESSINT

As usually defined, the EC50 is the midpoint of the concentration-response curve. What is called IC50 is the concentration needed to halve the response being measured. The low end stands for higher potency, the high end for lower potency. As for `Cc1ccc(Cl)c(C(=O)NC(=O)Nc2nc3ccc(S(C)(=O)=O)cc3s2)c1F` [Example 195, 6-Chloro-2-fluoro-3-methyl-N-[(6-methylsulfonylbenzothiazol-2-yl)carbamoyl]benzamide], at human GHS receptor [1], the Emax was found to be 22.8% and the EC50 is 32.9 nM. The IC50 at human GHS receptor [2] is 114 nM.
As to `CN1CCN(CCCS(=O)(=O)c2ccc3nc(NC(=O)NC(=O)c4cc(-n5cccn5)ccc4Cl)sc3c2)CC1` [Example 88, 2-Chloro-N-(6-(3-(4-methylpiperazin-1-yl)propylsulfonyl)benzothiazol-2-ylcarbamoyl)-5-(1H-pyrazol-1-yl)benzamide], at human GHS receptor [1], the Emax amounted to 4.42% and the concentration giving a half-maximal response (EC50) was ≥ 25000 nM. On human GHS receptor [2], this compound displayed an IC50 of 0.7 nM.
The like results for `COc1cc(Cl)c(C(=O)NC(=O)Nc2nc3ccc(S(=O)(=O)C4CCN(C)CC4)cc3s2)cc1-n1cccn1` [Example 264, 2-chloro-4-methoxy-N-(6-(1-methylpiperidin-4-ylsulfonyl)benzo [d]thiazol-2-ylcarbamoyl) 5-(1H-pyrazol-1-yl)benzamide] were, in that order, 0%, ≥ 20000 nM and 4.43 nM.
Turning to `COc1ccc(-c2ccccc2C(=O)NC(=O)Nc2nc3ccc(S(C)(=O)=O)cc3s2)cc1` [Example 124, 2-(4-Methoxyphenyl)-N-[(6-methylsulfonylbenzothiazol-2-yl)carbamoyl]benzamide], on human GHS receptor [1], the Emax turned out to be 54.5% and the half-maximal effective concentration (EC50) was determined as 524 nM. The compound further registered an IC50 at human GHS receptor [2] of 135 nM.
For `CN1CCC(Oc2ccc(Cl)c(C(=O)NC(=O)Nc3nc4ccc(S(C)(=O)=O)cc4s3)c2)CC1` [Example 244, 2-chloro-5-(1-methylpiperidin-4-yloxy)-N-(6-(methylsulfonyl)benzo[d]thiazol-2-ylcarbamoyl) benzamide], in that order: 22.6%, 19700 nM and 2060 nM.
The like results for `CS(=O)(=O)c1ccc2nc(NC(=O)NC(=O)c3cc(Cl)ccc3Cl)sc2c1` [Example 64, 2,5-Dichloro-N-[(6-methylsulfonylbenzothiazol-2-yl)carbamoyl]benzamide] were, in that order, 8.74%, 19 nM and 139 nM.
The like results for `CC(C)CNCCS(=O)(=O)c1ccc2nc(NC(=O)NC(=O)c3ccccc3Cl)sc2c1` [Example 28, 2-Chloro-N-[[6-[2-(2-methylpropylamino)ethylsulfonyl]benzothiazol-2-yl]carbamoyl]benzamide] were, in that order, 44.6%, 33.7 nM and 43 nM.
Regarding `Cc1cc(Cl)c(C(=O)NC(=O)Nc2nc3ccc(S(=O)(=O)C4CCN(C)CC4)cc3s2)cc1-n1cccn1` [Example 260, 2-chloro-4-methyl-N-(6-(1-methylpiperidin-4-ylsulfonyl)benzo [d]thiazol-2-ylcarbamoyl)-5-(1H-pyrazol-1-yl)benzamide], on human GHS receptor [1], the Emax turned out to be 1.52% and the EC50 is 9230 nM. For the same compound, the half-maximal inhibitory concentration (IC50) at human GHS receptor [2] was 5.78 nM.
For `CN1CCN(CCCS(=O)(=O)c2ccc3nc(NC(=O)NC(=O)c4ccccc4Cl)sc3c2)CC1` [Example 155, 2-Chloro-N-[[6-[3-(4-methylpiperazin-1-yl)propylsulfonyl]benzothiazol-2-yl]carbamoyl]benzamide], in that order: 55.2%, 2.25 nM and 1.2 nM.
For `CN1CCN(CCCS(=O)(=O)c2ccc3nc(NC(=O)NC(=O)c4cc(-n5cccn5)c(Cl)cc4Cl)sc3c2)CC1` [Example 241, 2,4-dichloro-N-(6-(3-(4-methylpiperazin-1-yl)propylsulfonyl)benzo[d]thiazol-2-ylcarbamoyl)-5-(1H-pyrazol-1-yl)benzamide], at human GHS receptor [1], the Emax stood at 0% and the concentration giving a half-maximal response (EC50) is ≥ 20000 nM. The half-maximal inhibitory concentration (IC50) at human GHS receptor [2] was determined as 0.31 nM.
